Reference: article PMC3911823 (The FEBS journal, 2011)
Residue numbers refer to the chain shown, from its start.

Assays:
P450 2B4 H172Q [1] = target: T1, P450 2B4 H172Q (Oryctolagus cuniculus, UniProt P00178, H172Q); experiment: Inhibition of 7-EFC O-deethylation by imidazole inhibitors; type: biochemical, rabbit (Oryctolagus cuniculus)
T1 sequence (P00178 with tags, fused parts or gaps H172Q limits assumed): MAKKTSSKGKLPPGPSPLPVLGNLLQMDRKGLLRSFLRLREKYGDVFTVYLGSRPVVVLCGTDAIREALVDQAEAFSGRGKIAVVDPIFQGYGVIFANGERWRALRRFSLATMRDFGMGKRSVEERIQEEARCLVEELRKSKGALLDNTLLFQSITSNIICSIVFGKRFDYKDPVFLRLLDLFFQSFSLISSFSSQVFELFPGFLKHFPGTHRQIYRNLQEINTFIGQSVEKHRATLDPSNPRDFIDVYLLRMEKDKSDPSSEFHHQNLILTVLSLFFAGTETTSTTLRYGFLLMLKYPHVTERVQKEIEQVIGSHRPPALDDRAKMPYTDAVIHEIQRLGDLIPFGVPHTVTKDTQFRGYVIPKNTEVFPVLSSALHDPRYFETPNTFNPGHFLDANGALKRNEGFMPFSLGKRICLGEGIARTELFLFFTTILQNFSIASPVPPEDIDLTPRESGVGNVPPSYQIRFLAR

P450 2B4 E474D = target: T2, P450 2B4 E474D (Oryctolagus cuniculus, UniProt P00178, E474D); experiment: as above; type: biochemical, rabbit (Oryctolagus cuniculus)
T2 sequence (P00178 with tags, fused parts or gaps E474D limits assumed): T1 sequence (P00178 with tags, fused parts or gaps H172Q limits assumed) with Q153H, E455D

P450 2B4 E474Q [2] = target: T3, P450 2B4 E474Q (Oryctolagus cuniculus, UniProt P00178, E474Q); experiment: as above; type: biochemical, rabbit (Oryctolagus cuniculus)
T3 sequence (P00178 with tags, fused parts or gaps E474Q limits assumed): T1 sequence (P00178 with tags, fused parts or gaps H172Q limits assumed) with Q153H, E455Q

P450 2B4 wild type = target: T4, P450 2B4 wild type (Oryctolagus cuniculus, UniProt P00178); type: biochemical, rabbit (Oryctolagus cuniculus); conditions: 2B4 WT
T4 sequence (P00178 with tags, fused parts or gaps limits assumed): T1 sequence (P00178 with tags, fused parts or gaps H172Q limits assumed) with Q153H

P450 2B4 H172Q [3] = target: T1, P450 2B4 H172Q; type: biochemical, rabbit (Oryctolagus cuniculus)
P450 2B4 E474Q [4] = target: T3, P450 2B4 E474Q; type: biochemical, rabbit (Oryctolagus cuniculus)
P450 2B4 H172F = target: T5, P450 2B4 H172F (Oryctolagus cuniculus, UniProt P00178, H172F)
T5 sequence (P00178 with tags, fused parts or gaps H172F limits assumed): T1 sequence (P00178 with tags, fused parts or gaps H172Q limits assumed) with Q153F

| IC50 (P450 2B4 H172Q [1]) [nM] | Ratio 4-CPI IC50/Bifonazole IC50 (P450 2B4 H172Q [1]; 2B4 H172Q, 50 μM 7-EFC as substrate) | IC50 (P450 2B4 E474D) [nM] | Ratio 4-CPI IC50/Bifonazole IC50 (P450 2B4 E474D; 2B4 E474D, 50 μM 7-EFC as substrate) | IC50 (P450 2B4 E474Q [2]) [nM] | Ratio 4-CPI IC50/Bifonazole IC50 (P450 2B4 E474Q [2]; 2B4 E474Q, 50 μM 7-EFC as substrate) | kcat/S50 (P450 2B4 wild type) | S50 (P450 2B4 wild type; Hill equation) [µM] | kcat (P450 2B4 wild type; substrate O-dealkylation) [s⁻¹] | decrease (change) in kcat versus wild type (P450 2B4 H172Q [3]) | kcat (P450 2B4 H172Q [3]) [s⁻¹] | kcat/S50 (P450 2B4 H172Q [3]) | S50 (P450 2B4 H172Q [3]; Hill equation) [µM] | decrease (change) in kcat versus wild type (P450 2B4 E474Q [4]) | kcat (P450 2B4 E474Q [4]) [s⁻¹] | kcat/S50 (P450 2B4 E474Q [4]) | S50 (P450 2B4 E474Q [4]; Hill equation) [µM] | kcat (P450 2B4 H172F) [s⁻¹] | kcat/S50 (P450 2B4 H172F) | substrate turnover (activity) (P450 2B4 H172F) | SMILES |
| --- | --- | --- | --- | --- | --- | --- | --- | --- | --- | --- | --- | --- | --- | --- | --- | --- | --- | --- | --- | --- |
| 220 | 0.29 | 240 | 0.39 | 500 | 0.62 | – | – | – | – | – | – | – | – | – | – | – | – | – | – | Clc1ccc(-c2c[nH]cn2)cc1 [4-CPI, 4-(4-chlorophenyl)imidazole] |
| – | – | – | – | – | – | 3.3 | 2.3 ± 0.5 | 0.127 ± 0.005 | ~ 15 fold | 0.0083 ± 0.0017 | 0.06 | 8.2 ± 1.0 | ~ 4.5 fold | 0.0283 ± 0.005 | 0.35 | 4.8 ± 0.5 | 0 | 0 | inactive | O=c1ccc2nc3ccc(OCc4ccccc4)cc3oc-2c1 [7-BR, 7-benzyloxyresorufin] |
